Source: US6420387B1, “Farnesyl protein transferase inhibiting (imidazol-5-yl) methyl-2-quinolinone derivatives” (Janssen Pharmaceutica N.V., priority 1995, dated 2002)
Counter-ions that a name gives are not always drawn.

Legend:
[1] = target: T1, Human farnesyl protein transferase (Homo sapiens, UniProt P49354+P49356); assay: In vitro assay for inhibition of farnesyl protein transferase (scintillation proximity assay); assay type: biochemical; conditions: concentration producing 50% inhibition of enzyme activity; [3H]-farnesylpyrophosphate and biotinylated lamin B peptide substrates, 60 min at 37° C.
T1 construct: grown as monolayer cell cultures were used as a source of human enzyme; endogenous in cells; host or cells: KHOS (Kirsten virus transformed human osteosarcoma) cells, grown as solid tumors in nude mice or as monolayer cultures; 30-50% ammonium sulfate fraction, then Q Fast Flow Sepharose
Protocol: Human farnesyl protein transferase was prepared essentially as described (Y. Reiss et al., Methods: A Companion to Methods in Enzymology vol 1, 241-245, 1990). Kirsten virus transformed human osteosarcoma (KHOS) cells (American Type Culture Collection, Rockville, Md., USA) grown as solid tumors in nude mice or grown as monolayer cell cultures were used as a source of human enzyme. Briefly, cells or tumors were homogenized in buffer containing 50 mM Tris, 1 mM EDTA, 1 mM EGTA and 0.2 mM phenylmethylsulfonylfluoride (pH 7.5). The homogenates were centrifuged 28,000×g for 60 min and the supernatants collected. A 30-50% ammonium sulfate fraction was prepared, and the resulting precipitate was resuspended in a small (10 to 20 ml) volume of dialysis buffer containing 20 mM Tris 1 mM dithiothreitol and 20 μM ZnCl2. The ammonium sulfate fraction was dialyzed overnight against two changes of the same buffer. The dialyzed material was applied to a 10×1 cm Q Fast Flow Sepharose (Pharmacia LKB Biotechnology Inc., Piscataway, N.J., USA) which had been preequilibrated with 100 ml of dialysis buffer supplemented with 0.05 M NaCl. The column was washed with an additional 50 ml of dialysis buffer plus 0.05 M NaCl followed by a gradient from 0.05 M to 0.25 M NaCl prepared in dialysis buffer. The enzyme activity was eluted with a linear gradient of 0.25 to 1.0 M NaCl prepared in the dialysis buffer. Fractions containing 4 to 5 ml volumes of column eluate were collected and analyzed for farnesyl protein transferase activity. Fractions with enzyme activity were pooled and supplemented with 100 μM ZnCl2. Enzyme samples were stored frozen at −70° C.
The activity of farnesyl protein transferase was measured using the Farnesyl Transferase [^3H] Scintillation Proximity Assay (Amersham International plc., England) under the conditions specified by the manufacturer. To assay for inhibitors of the enzyme, 0.20 μCi of the [^3H]-famesylpyrophosphate substrate and the biotinylated lamin B peptide substrate (biotin-YRASNRSCAIM) were mixed with test compounds in a reaction buffer consisting of 50 mM HEPES, 30 mM MgCl2, 20 mM KCl, 5 mM dithiothreitol, 0.01% Triton X-100. Test compounds were delivered in a 10 μl volume of dimethylsulfoxide (DMSO) to achieve concentrations of 1 and 10 μg/ml in a final volume of 100 μl. The reaction mixture was warmed to 37° C. The enzyme reaction was started by adding 20 μl of diluted human farnesyl protein transferase. Sufficient enzyme preparation was added to produce between 4000 to 15000 cpm of reaction product during the 60 min of reaction incubation at 37° C. Reactions were terminated by the addition of STOP/scintillation proximity bead reagent (Amersham). The reaction product [^3H]-farnesyl-(Cys)-biotin lamin B peptide was captured on the streptavidin linked scintillation proximity bead. The amount of [^3H]-farnesyl-(Cys)-biotin lamin B peptide synthesized in the presence or absence of test compounds was quantified as cpm by counting on a Wallac Model 1480 Microbeta Liquid Scintillation Counter. The cpm of product was considered to be farnesyl protein transferase activity. The protein farnesyl transferase activity observed in the presence of test compound was normalized to farnesyl transferase activity in the presence of 10% DMSO and expressed as per cent inhibition. […] The effects of test compounds in these studies were calculated as IC50 (concentration of test compound producing 50% inhibition of enzyme activity) using the LGICV50 computer program written by the Science Information Division of R. W. Johnson Pharmaceutical Research Institute (Spring House, Pa., USA) on a VAX computer.

[2] = tested on: NIH 3T3 cells transformed by the T24 activated human H-ras gene; assay: Ras-transformed cell phenotype reversion assay; assay type: cell-based, mouse; conditions: cell counts after 72 hours proliferation, corrected for initial input of 200,000 cells
Text: Insertion of activated oncogenes such as the mutant ras gene into mouse NIH 3T3 cells converts the cells to a transformed phenotype. The cells become tumorigenic, display anchorage independent growth in semi-solid medium and lose contact inhibition. Loss of contact inhibition produces cell cultures which no longer form uniform monolayers. Rather, the cells pile up into multicellular nodules and grow to very high saturation densities in plastic tissue culture dishes. Agents such as protein farnesyl transferase inhibitors which revert the ras transformed phenotype restore the uniform monolayer growth pattern to cells in culture. This reversion is easily monitored by counting the number of cells in tissue culture plates. Transformed cells will achieve higher cell numbers than cells which have reverted to an untransformed phenotype. Compounds which revert the transformed phenotype should produce antitumor effects in tumors bearing ras gene mutations.
Compounds are screened in tissue culture in NIH 3T3 cells transformed by the T24 activated human H-ras gene. Cells are seeded at an initial density of 200,000 cells per well (9.6 cm^2 surface area) in six-well cluster tissue culture plates. Test compounds are immediately added to 3.0 ml cell growth medium in a 3.0 μl volume of DMSO, with a final concentration of DMSO in the cell growth medium of 0.1%. The test compounds are run at concentrations of 5, 10, 50, 100, and 500 nM along with a DMSO treated vehicle control. (In case a high activity is observed at 5 nM, the test compound is tested at even lower concentrations.) The cells are allowed to proliferate for 72 hours. Then the cells are detached in 1.0 ml trypsin-EDTA cell dissociation medium and counted on a Coulter particle counter.
Cell numbers expressed as cells per well are measured using a Coulter Particle Counter.
All cell counts were corrected for the initial cell input density by subtracting 200,000.
Control cell counts=[cell counts from cells incubated with DMSO vehicle −200,000].
Test compound cell counts=[cell counts from cells incubated with test compound −200,000]. [formula]
IC50 (i.e. the test compound concentration required to inhibit enzyme activity by 50%) is calculated if sufficient data are available, summarized in table 11.

SMILES | IC50 [1] [nM] | IC50 ([2]; NIH3T3) [nM] | IC50 [2] [nM]
Cn1cncc1C(O)(c1ccc(Cl)cc1)c1ccc2c(c1)c(-c1cccc(Cl)c1)cc(=O)n2C (centres unmarked) [Compound 23, (A)-4-(3-chlorophenyl)-6-[(4-chlorophenyl)-hydroxy(1-methyl-1H-imidazol-5-yl)methyl]-1-methyl-2(1H)-quinolinone ethanedioate (1:1)] | – | – | 395
Cn1cncc1C(N)(c1ccc(Cl)cc1)c1ccc2c(c1)c(-c1cccc(Cl)c1)c(Cl)c(=O)n2C (racemic) [Compound 143, (±)-6-[amino(4-chlorophenyl)(1-methyl-1H-imidazol-5-yl)methyl]-3-chloro-4-(3-chlorophenyl)-1-methyl-2(1H)-quinolinone] | – | 82 | –
Cn1cncc1C(O)(c1ccc(Cl)cc1)c1ccc2c(c1)c(-c1cccc(OCCO)c1)cc(=O)n2C (centres unmarked) [Compound 63] | 1 | 53 | –
CCc1cccc(-c2cc(=O)n(C)c3ccc(C(N)(c4ccc(Cl)cc4)c4cncn4C)cc23)c1 (centres unmarked) [Compound 98] | 6.4 | 15 | –
CCCOc1cccc(-c2cc(=O)n(C)c3ccc(C(O)(c4ccc(Cl)cc4)c4cncn4C)cc23)c1 (centres unmarked) [Compound 37] | 10.1 | – | –
COc1cccc(-c2cc(=O)n(C)c3ccc(C(O)(c4ccc(Cl)cc4)c4cncn4C)cc23)c1 (racemic) [Compound 36, (±)-6-[(4-chlorophenyl)hydroxy(1-methyl-1H-imidazol-5-yl)methyl]-4-(3-methoxyphenyl)-1-methyl-2(1H)-quinolinone] | 2.8 | – | –
CCCc1cccc(-c2cc(=O)n(C)c3ccc(C(N)(c4ccc(Cl)cc4)c4cncn4C)cc23)c1 (centres unmarked) [Compound 100] | 0.52 | 11 | –
Cn1cncc1C(c1ccc(Cl)cc1)c1ccc2c(c1)c(-c1cccc(Cl)c1)cc(=S)n2C (racemic) [Compound 128, (±)-4-(3-chlorophenyl)-6-[(4-chlorophenyl)(1-methyl-1H-imidazol-5-yl)methyl]-1-methyl-2(1H)-quinolinethione] | – | 177 | –
CNC(c1ccc(Cl)cc1)(c1ccc2c(c1)c(-c1cccc(Cl)c1)cc(=O)n2C)c1cncn1C (racemic) [Compound 61, (±)-4-(3-chlorophenyl)-6-[(4-chlorophenyl)(methylamino)(1-methyl-1H-imidazol-5-yl)methyl]-1-methyl-2(1H)-quinolinone monohydrate] | 1.1 | 310 | –
CCCc1cccc(-c2cc(=O)n(C)c3ccc(C(O)(c4ccc(Cl)cc4)c4cncn4C)cc23)c1 (centres unmarked) [Compound 99] | 1.7 | – | –
COCC(=O)NC(c1ccc(Cl)cc1)(c1ccc2c(c1)c(-c1cccc(Cl)c1)cc(=O)n2C)c1cncn1C (racemic) [Compound 89, (±)-N-[(4-chlorophenyl)[4-(3-chlorophenyl)-1,2-dihydro-1-methyl-2-oxo-6-quinolinyl](1-methyl-1H-imidazol-5-yl)methyl]-2-methoxyacetamide monohydrochloride] | – | 24 | –
Cn1cncc1C(O)(c1ccc(Cl)cc1)c1ccc2c(c1)c(-c1ccccc1)cc(=O)n2C (centres unmarked) [Compound 1] | 6 | – | –

Second part, led by results:

IC50 [1] [nM] | SMILES | IC50 ([2]; NIH3T3) [nM] | IC50 [2] [nM]
18.4 | Cn1cncc1C(OCCCO)(c1ccc(Cl)cc1)c1ccc2c(c1)c(-c1cccc(Cl)c1)cc(=O)n2C (centres unmarked) [Compound 15] | – | –
4 | CN(C)C(c1ccc(Cl)cc1)(c1ccc2c(c1)c(-c1cccc(Cl)c1)cc(=O)n2C)c1cncn1C (centres unmarked) [Compound 66] | 19 | –
24 | COC(c1ccc(Cl)cc1)(c1ccc2c(c1)c(-c1cccc(Cl)c1)cc(=O)n2C)c1cncn1C (racemic) [Compound 4, (±)-4-(3-chlorophenyl)-6-[(4-chlorophenyl)methoxy(1-methyl-1H-imidazol-5-yl)methyl]-1-methyl-2(1H)-quinolinone ethanedioate(1:1).dihydrate] | – | –
25 | Cn1cncc1C(c1ccc(Cl)cc1)c1ccc2c(c1)c(-c1cccc(Cl)c1)cc(=O)n2C (racemic) [Compound 5, (±)-4-(3-chlorophenyl)-6-[(4-chlorophenyl)(1-methyl-1H-imidazol-5-yl)methyl]-1-methyl-2(1H)-quinolinone ethanedioate(1:1).mono-hydrate] | 32 | –
11.6 | Cn1cncc1C(O)(c1ccc(Cl)cc1)c1ccc2c(c1)c(-c1cccc(O)c1)cc(=O)n2C (centres unmarked) [Compound 64] | – | –
1000 | Cn1c(=O)cc(-c2cccc(Cl)c2)c2cc(C(c3ccc(Cl)cc3)c3c[nH]cn3)ccc21 (centres unmarked) [Compound 45] | – | –
2.7 | Cn1cncc1C(O)(c1ccc(Cl)cc1)c1ccc2c(c1)c(-c1cccc(Cl)c1)cc(=O)n2C (centres unmarked) [Compound 24, (B)-4-(3-chlorophenyl)-6-[(4-chlorophenyl)hydroxy(1-methyl-1H-imidazol-5-yl)methyl]-1-methyl-2(1H)-quinolinone ethanedioate(1:1)] | 16 | –
2.8 | CCOC(=O)CC(c1ccc(Cl)cc1)(c1ccc2c(c1)c(-c1cccc(Cl)c1)cc(=O)n2C)c1cncn1C (centres unmarked) [Compound 58] | 96 | –
0.62 | Cn1cncc1C(c1ccc(Cl)cc1)(c1ccc2c(c1)c(-c1cccc(Cl)c1)cc(=O)n2C)n1ccnc1 (centres unmarked) [Compound 60] | 70 | –
3.4 | Cn1cncc1C(CCl)(c1ccc(Cl)cc1)c1ccc2c(c1)c(-c1cccc(Cl)c1)cc(=O)n2C (racemic) [Compound 69, (±)-6-[2-chloro-1-(4-chlorophenyl)-1-(1-methyl-1H-imidazol-5-yl)ethyl]-4-(3-chlorophenyl)-1-methyl-2(1H)-quinolinone ethanedioate (1:1)] | 14 | –
1.6 | Cn1cncc1C(c1ccc(Cl)cc1)c1ccc2[nH]c(=O)cc(-c3cccc(Cl)c3)c2c1 (centres unmarked) [Compound 7] | – | –
5.9 | COCCNC(c1ccc(Cl)cc1)(c1ccc2c(c1)c(-c1cccc(Cl)c1)cc(=O)n2C)c1cncn1C (centres unmarked) [Compound 67] | 51 | –
910 | Cn1c(=O)cc(-c2ccccc2)c2cc(C(c3ccc(Cl)cc3)c3c[nH]cn3)ccc21 (centres unmarked) [Compound 42] | – | –
2.9 | CCc1cccc(-c2cc(=O)n(C)c3ccc(C(O)(c4ccc(Cl)cc4)c4cncn4C)cc23)c1 (centres unmarked) [Compound 97] | – | –
5.7 | CCCOc1cccc(-c2cc(=O)n(C)c3ccc(C(c4ccc(Cl)cc4)c4cncn4C)cc23)c1 (centres unmarked) [Compound 52] | – | –
